The results in this text go back to PubChem BioAssay (NCI).

Values joined by “and” are separate entries in the source; they are usually repeats but may differ in a detail not shown here. Equal entries are not always repeated.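 Values below derive from 48-hour exposures of cells grown in 96-well plates, with endpoints linearly interpolated between the two concentrations bracketing the appropriate inhibition level. At the GI50, growth is halved. TGI: total growth inhibition.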 Bounds are passed on as bounds.

Some test systems named below: OVCAR-8 ovarian; KM12 colon; BT-549 breast; HT29 colon; MALME-3M melanoma; HL-60(TB) leukemia; RPMI-8226 leukemia; UACC-257 melanoma; HS 578T breast; MOLT-4 leukemia; RXF 393 renal; NCI-H460 lung; EKVX NSCLC; SNB-75 CNS; NCI-H23 lung; DU-145 prostate; TK-10 renal; SK-MEL-2 melanoma; CAKI-1 renal.
What all share (assay): NCI anticancer screen, dose series, 48 h

Regarding `COc1cccc(Nc2nc(N)nc(N)c2N=O)c1`, the TGI with OVCAR-8 ovarian was 40.9 µM; with KM12 colon, greater than 100 µM; in the experiment on BT-549 breast, 96.8 µM; in the experiment with HT29 colon, 75.3 µM; with MALME-3M melanoma, greater than 100 µM; with HL-60(TB) leukemia it was 79 µM. Also, the TGI is 60.6 µM in the experiment with RPMI-8226 leukemia; 56.9 µM in the experiment on UACC-257 melanoma; 82.4 µM with HS 578T breast; 41.8 µM in the experiment on MOLT-4 leukemia; greater than 100 µM with RXF 393 renal; 29.1 µM in the experiment with NCI-H460 lung. In addition, the TGI with EKVX NSCLC was greater than 100 µM; with SNB-75 CNS it was 91.1 µM; with NCI-H23 lung, 31.5 µM; in the experiment with DU-145 prostate, 36.7 µM; in the experiment with TK-10 renal, 60.5 µM; in the experiment on SK-MEL-2 melanoma it was greater than 100 µM. For the same compound, in the experiment on CAKI-1 renal, the TGI amounted to 55.4 µM.
`O=c1c(=[n+]2ccc(=C([O-])c3ccccc3)cc2)/c(=N/S(=O)(=O)c2ccccc2)c(=O)c2ccccc12`: the TGI in the experiment with OVCAR-8 ovarian was determined as 26.7 µM; in the experiment on KM12 colon it was 28.3 µM; with BT-549 breast it was 18 µM; in the experiment with HT29 colon, 28 µM; with MALME-3M melanoma, 16.9 µM; in the experiment with HL-60(TB) leukemia, 4.95 µM. In addition, the TGI with RPMI-8226 leukemia came out at 18.9 µM; with UACC-257 melanoma, 23.9 µM; in the experiment with HS 578T breast, 18.7 µM; in the experiment with MOLT-4 leukemia, 14.8 µM; with RXF 393 renal, 25.2 µM; in the experiment on NCI-H460 lung it was 36.2 µM. Also, the TGI is 27 µM with EKVX NSCLC; 27.7 µM with SNB-75 CNS; 12 µM with NCI-H23 lung; 26.8 µM in the experiment on DU-145 prostate; 32.2 µM in the experiment with TK-10 renal; 8.63 µM with SK-MEL-2 melanoma. In the experiment on CAKI-1 renal, this compound came in with a TGI of 5.19 µM.
Regarding `CC1C(O)Oc2cc3c(cc2C1c1ccccc1O)OCO3` (configuration not stated), the TGI with OVCAR-8 ovarian is greater than 100 µM; in the experiment with KM12 colon it was greater than 100 µM; in the experiment with BT-549 breast, greater than 100 µM; with HT29 colon it was 66.6 µM; with MALME-3M melanoma it was 83.8 µM; in the experiment with HL-60(TB) leukemia, 36.7 µM. For the same compound, the TGI was 48.1 µM in the experiment on RPMI-8226 leukemia; greater than 100 µM in the experiment on UACC-257 melanoma; 46.6 µM in the experiment on HS 578T breast; 61.7 µM in the experiment with MOLT-4 leukemia; 48.4 µM in the experiment on RXF 393 renal; 64.1 µM with NCI-H460 lung. Further, the TGI in the experiment on EKVX NSCLC was greater than 100 µM; in the experiment on SNB-75 CNS it was 87.4 µM; with NCI-H23 lung it was greater than 100 µM; in the experiment with DU-145 prostate it was greater than 100 µM; with TK-10 renal, 89.6 µM; in the experiment with SK-MEL-2 melanoma, 83.8 µM. Besides, the TGI with CAKI-1 renal was greater than 100 µM.
In the case of `CC(C)NC(=O)OCc1c(COC(=O)NC(C)C)c(-c2ccc[n+](COC(=O)C(C)(C)C)c2)n2c1CCC2`, the TGI is greater than 100 µM in the experiment with OVCAR-8 ovarian; greater than 100 µM with KM12 colon; greater than 100 µM in the experiment with BT-549 breast; greater than 100 µM with HT29 colon; greater than 100 µM with MALME-3M melanoma; greater than 94.9 µM with HL-60(TB) leukemia. For the same compound, the TGI with RPMI-8226 leukemia was greater than 100 µM; in the experiment on UACC-257 melanoma it was greater than 100 µM; in the experiment on HS 578T breast, greater than 100 µM; in the experiment on MOLT-4 leukemia, greater than 100 µM; in the experiment on RXF 393 renal it was greater than 92.8 µM; with NCI-H460 lung, greater than 100 µM. In addition, the TGI in the experiment on EKVX NSCLC, with SNB-75 CNS, with NCI-H23 lung, with DU-145 prostate, in the experiment on TK-10 renal and in the experiment on SK-MEL-2 melanoma was greater than 100 µM in each case. This compound registered a TGI with CAKI-1 renal of 99.7 µM.
`CN(C)CCCN1c2ccccc2CCc2cc([N+](=O)[O-])ccc21`: the TGI in the experiment on OVCAR-8 ovarian was 71.8 µM and 30 µM; in the experiment with KM12 colon, 71 µM and 35.1 µM; in the experiment on BT-549 breast, 45 µM and 31.3 µM; in the experiment on HT29 colon, 41.6 µM and 32.8 µM; in the experiment with MALME-3M melanoma, 33.8 µM and 32.9 µM; in the experiment on HL-60(TB) leukemia, 54 µM and 9.46 µM. Moreover, the TGI is 52.6 µM and 41.2 µM with RPMI-8226 leukemia; 38 µM and 29.5 µM with UACC-257 melanoma; 71.9 µM and 34.3 µM with HS 578T breast; > 100 µM and 35.9 µM in the experiment on MOLT-4 leukemia; 32.8 µM and 26 µM with RXF 393 renal; 41.7 µM and 29.8 µM with NCI-H460 lung. In addition, the TGI was > 100 µM and 37.4 µM in the experiment on EKVX NSCLC; 26.4 µM with SNB-75 CNS; 54.1 µM and 36.7 µM with NCI-H23 lung; 58.9 µM and 34.6 µM in the experiment with DU-145 prostate; 69 µM and 27.8 µM in the experiment with TK-10 renal; 39.4 µM and 38.8 µM with SK-MEL-2 melanoma. In addition, the TGI in the experiment with CAKI-1 renal was 59.7 µM and 32.2 µM. For the same compound, the GI50 in the experiment on HL-60(TB) leukemia is 19.2 µM and 2.83 µM.
Consider `O=C(O)c1ccc(NNC(=O)c2cccc3c(=O)c4ccccc4[nH]c23)cc1`, for which the TGI with OVCAR-8 ovarian, in the experiment on KM12 colon, in the experiment with BT-549 breast, in the experiment with HT29 colon, in the experiment with MALME-3M melanoma and in the experiment on HL-60(TB) leukemia was greater than 100 µM in each case. The TGI with RPMI-8226 leukemia, in the experiment on UACC-257 melanoma, in the experiment with HS 578T breast, with MOLT-4 leukemia, with RXF 393 renal and in the experiment with NCI-H460 lung was greater than 100 µM in each case. In addition, the TGI in the experiment on EKVX NSCLC, in the experiment with SNB-75 CNS, with NCI-H23 lung, in the experiment with DU-145 prostate, in the experiment on TK-10 renal and with SK-MEL-2 melanoma was greater than 100 µM in each case. The compound further came in with a TGI in the experiment with CAKI-1 renal greater than 100 µM.
In the case of `Cc1ccc(/C=N/NS(=O)(=O)c2ccc(/C=C3\NC(=O)NC3=O)cc2)cc1`, the TGI in the experiment on OVCAR-8 ovarian, with KM12 colon, in the experiment with BT-549 breast, in the experiment with HT29 colon, with MALME-3M melanoma and with HL-60(TB) leukemia was greater than 100 µM each time. Further, the TGI is greater than 100 µM with RPMI-8226 leukemia; greater than 100 µM in the experiment on UACC-257 melanoma; 81.6 µM with HS 578T breast; greater than 100 µM in the experiment on MOLT-4 leukemia; greater than 100 µM with RXF 393 renal; greater than 100 µM in the experiment with NCI-H460 lung. The TGI is greater than 100 µM in the experiment on EKVX NSCLC; 47.7 µM with SNB-75 CNS; greater than 100 µM in the experiment on NCI-H23 lung; greater than 100 µM with DU-145 prostate; greater than 100 µM in the experiment on TK-10 renal; greater than 100 µM with SK-MEL-2 melanoma. This compound also gave a TGI in the experiment with CAKI-1 renal greater than 100 µM.
Consider `CCOC(=O)c1cc(C#N)[nH]c1-c1ccsc1`, for which the TGI in the experiment on OVCAR-8 ovarian was greater than 100 µM; with KM12 colon, 69.6 µM; with BT-549 breast, greater than 100 µM; with HT29 colon it was 95.1 µM; in the experiment on MALME-3M melanoma, 77.3 µM; in the experiment with HL-60(TB) leukemia it was 41.5 µM. Besides, the TGI in the experiment with RPMI-8226 leukemia is 65.6 µM; in the experiment on UACC-257 melanoma, greater than 100 µM; in the experiment on HS 578T breast, 55.8 µM; in the experiment with MOLT-4 leukemia, 53.1 µM; in the experiment on RXF 393 renal it was 51.3 µM; with NCI-H460 lung, greater than 100 µM. The TGI is 84 µM with EKVX NSCLC; 97.4 µM with SNB-75 CNS; greater than 100 µM with NCI-H23 lung; 58.8 µM with DU-145 prostate; greater than 100 µM in the experiment on TK-10 renal; greater than 100 µM in the experiment with SK-MEL-2 melanoma. Also, the TGI with CAKI-1 renal was greater than 100 µM.
Turning to `COC(=O)/C=C1/OC(c2ccc(C)cc2)=C(Cl)C1=O`, the TGI in the experiment with OVCAR-8 ovarian stood at 41.3 µM; in the experiment on KM12 colon, 30.7 µM; in the experiment with BT-549 breast, 42.2 µM; with HT29 colon, 32.6 µM; in the experiment on MALME-3M melanoma, 33.5 µM; in the experiment on HL-60(TB) leukemia it was 10.2 µM. Also, the TGI was determined as 14.4 µM in the experiment with RPMI-8226 leukemia; 43.1 µM with UACC-257 melanoma; 68.9 µM with HS 578T breast; 13.8 µM in the experiment on MOLT-4 leukemia; 26.6 µM in the experiment on RXF 393 renal; 51 µM in the experiment on NCI-H460 lung. In addition, the TGI in the experiment with EKVX NSCLC was found to be 42.3 µM; in the experiment with SNB-75 CNS, 35.5 µM; with NCI-H23 lung it was 36.9 µM; with DU-145 prostate, 32.7 µM; with TK-10 renal, 34.9 µM; in the experiment with SK-MEL-2 melanoma it was 34.3 µM. In the experiment on CAKI-1 renal, this compound displayed a TGI of 29.7 µM.
